The values that follow come from ChEMBL document CHEMBL1201862, “PubChem BioAssay data set” (2004).

Where “and” joins values, the source holds several entries; their conditions need not be identical. Equal values may be shown once.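 Interpolation was linear, between the two tested concentrations surrounding the appropriate level; five concentrations were tested over 48 hours in 96-well plates. GI50 is the concentration that inhibits growth by half.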 Calls of active or inactive are those of the source. Cut-off read from the data, not from the text of the source: active = GI50 up to about 1.1 µM and inactive = higher. Bounds are passed on as bounds.

Assay in all cases: inhibition of tumour cell growth, NCI panel, 48 h
Test [1] relates to EKVX.
For test [2], the system named is SK-MEL-2.
Test [3] relates to SNB-19.
The subject of test [4] is CCRF-CEM.
Test [5] relates to K562.
Test [6] has as its system MOLT-4.
The subject of test [7] is UACC-62.
Test [8] relates to SK-MEL-28.
Test [9] concerns HCT-116.
For test [10], the system named is SK-MEL-5.
In test [11] the test system is OVCAR-5.
The test system of test [12] is PC-3.
In test [13] the test system is MDA-N.
Test [14] relates to SN12C.
The test system of test [15] is MDA-MB-231.
The test system of test [16] is LOX IMVI.
Test [17] relates to HL-60.
Test [18] concerns SF-539.
The test system of test [19] is HOP-92.

`Cc1ccc(S(=O)(=O)N/N=C2\C(=O)Nc3cc(O)c(C(=O)O)cc32)cc1`: the GI50 in test [1] is 61.8 µM (inactive); in test [2], > 100 µM (inactive); in [3] it was > 100 µM (inactive); in test [4], > 100 µM (inactive); in test [5], > 100 µM (inactive); in [6], > 100 µM (inactive). Moreover, the GI50 in test [7], in test [8], in [9], in [10], in [11] and in test [12] was > 100 µM (inactive) throughout. Besides, the GI50 in test [13], in test [14], in test [15] and in test [16] was > 100 µM (inactive) throughout.

Turning to `CC(C)(C)c1cc(C(=O)/C=C/C=C/c2ccccc2)cc(C(C)(C)C)c1O`, the GI50 in [17] is 1.55 µM (inactive); in test [18] it was 14.5 µM (inactive); in test [19], 42.2 µM (inactive); in [1], 25.4 µM (inactive); in [2], 11.7 µM (inactive); in [3], 22.3 µM (inactive). Besides, the GI50 was 3.15 µM (inactive) in test [4]; 7.31 µM (inactive) in test [5]; 12.8 µM (inactive) in test [6]; 18.1 µM (inactive) in [7]; 30.5 µM (inactive) in test [8]; 18.2 µM (inactive) in [9]. Besides, the GI50 is 11.3 µM (inactive) in test [10]; 36.7 µM (inactive) in test [11]; 14.7 µM (inactive) in [12]; 27.4 µM (inactive) in test [14]; 19.4 µM (inactive) in [15]; 19.8 µM (inactive) in [16].

With `O=C(O)CSc1nc2ccccc2[nH]1`, the GI50 in [19] was > 100 µM (inactive); in test [1], > 100 µM (inactive); in [2], 74.1 µM (inactive); in test [3], > 100 µM (inactive); in test [5] it was > 100 µM (inactive); in test [6], 6.25 µM (inactive). The GI50 in test [7], in test [8], in [9], in test [11], in [12] and in test [13] was > 100 µM (inactive) throughout. Also, the GI50 in test [14], in test [15] and in test [16] was > 100 µM (inactive) each time.

For `COC(=O)c1cnc(Cl)cn1`, the GI50 was 32.7 µM (inactive) in test [17]; 74.3 µM (inactive) in test [18]; 28.4 µM (inactive) in [19]; 33.3 µM (inactive) in test [1]; 48 µM (inactive) in [2]; > 100 µM (inactive) in [3]. For the same compound, the GI50 in test [4] is 35.9 µM (inactive); in test [5], 40.1 µM (inactive); in test [6], 41.4 µM (inactive); in test [7] it was 33 µM (inactive); in [8] it was 53.3 µM (inactive); in test [9], 38.2 µM (inactive). For the same compound, the GI50 is 59.2 µM (inactive) in test [10]; 58.3 µM (inactive) in [11]; 13.6 µM (inactive) in test [12]; 30.5 µM (inactive) in test [14]; 71.8 µM (inactive) in test [15]; 33.4 µM (inactive) in test [16].

For the compound `O=C(Cc1ccccc1)NN1C(=O)/C(=C\c2ccccc2O)S/C1=N\c1ccccc1`, the GI50 in [18] is > 100 µM (inactive); in [19], 39.3 µM (inactive); in test [1], > 100 µM (inactive); in test [2] it was > 100 µM (inactive); in [3], > 100 µM (inactive); in test [6] it was > 100 µM (inactive). In addition, the GI50 in test [7], in [8], in [9], in [10], in [11] and in test [13] was > 100 µM (inactive) in each case. Moreover, the GI50 in test [14] and in [15] was > 100 µM (inactive) in each case.

In the case of `COc1ccccc1/N=N/c1c(O)ccc2ccccc12`, the GI50 was 22.8 µM (inactive) and 14.6 µM (inactive) in test [19]; > 63.4 µM (inactive) and 65 µM (inactive) in [2]; 27.6 µM (inactive) and 26.9 µM (inactive) in test [3]; > 100 µM (inactive) and 82.8 µM (inactive) in [5]; 64.3 µM (inactive) in [6]; 85.3 µM (inactive) in test [8]. For the same compound, the GI50 in [9] was 33.4 µM (inactive) and 29 µM (inactive); in test [10], 22.8 µM (inactive) and 20.7 µM (inactive); in [11], 40.1 µM (inactive) and 38.9 µM (inactive); in [12], 35.6 µM (inactive) and 38.1 µM (inactive); in [13], 45.7 µM (inactive) and > 80.4 µM (inactive); in [14], 71.4 µM (inactive) and 60.8 µM (inactive). Further, the GI50 in test [15] is 30.2 µM (inactive) and 28.5 µM (inactive).

For the compound `COc1cc(C2c3cc4c(cc3OC(Nc3ccccc3)C2C)OCO4)cc(OC)c1OC` (stereo not given), the GI50 is 0.275 µM (active) in test [17]; 0.262 µM (active) in test [18]; 1.31 µM (inactive) in [1]; 5.65 µM (inactive) in [2]; 1.19 µM (inactive) in test [3]; 0.315 µM (active) in test [4]. Also, the GI50 was 0.282 µM (active) in test [5]; 0.416 µM (active) in test [6]; 0.621 µM (active) in test [7]; 1.61 µM (inactive) in test [8]; 0.42 µM (active) in test [9]; 0.468 µM (active) in test [12]. The GI50 is 0.161 µM (active) in test [13], 0.659 µM (active) in test [14], 2.8 µM (inactive) in test [15] and 0.593 µM (active) in test [16].

Regarding `NCCCCN(CCCN)C(=O)c1ccccc1`, the GI50 in test [17], in [18], in [19], in test [1], in test [2] and in [3] was > 100 µM (inactive) in each case. In addition, the GI50 in [4], in test [5], in [6], in [7], in test [8] and in test [9] was > 100 µM (inactive) each time. For the same compound, the GI50 in test [10], in test [11], in [12], in test [14] and in test [15] was > 100 µM (inactive) in each case.

Regarding `COc1ccc2oc(=N)c(C(=O)Nc3ccccn3)cc2c1`, the GI50 in test [17] was > 100 µM (inactive); in [19], > 100 µM (inactive); in test [1] it was 62.4 µM (inactive); in [2], 23.2 µM (inactive); in test [3] it was 87.1 µM (inactive); in test [4], > 100 µM (inactive). For the same compound, the GI50 is > 100 µM (inactive) in test [5]; > 100 µM (inactive) in [6]; 71.4 µM (inactive) in [7]; > 100 µM (inactive) in test [8]; > 100 µM (inactive) in test [9]; > 100 µM (inactive) in test [10]. Also, the GI50 in test [11], in test [12], in [14], in test [15] and in test [16] was > 100 µM (inactive) in each case.

`COc1cccc(/C=N/n2c(Cc3ccccc3)n[nH]c2=O)c1`: the GI50 in [18] was > 100 µM (inactive); in [1] it was > 72.6 µM (inactive); in test [2], > 100 µM (inactive); in test [3] it was > 100 µM (inactive); in test [4], > 100 µM (inactive); in [5], > 100 µM (inactive). The GI50 in test [6] was > 100 µM (inactive); in test [7] it was > 100 µM (inactive); in test [8] it was > 100 µM (inactive); in test [9], > 100 µM (inactive); in test [10], 33.9 µM (inactive); in test [11], > 100 µM (inactive). In addition, the GI50 was > 100 µM (inactive) in test [12]; > 100 µM (inactive) in [13]; > 19.7 µM (inactive) in test [14]; > 100 µM (inactive) in test [15]; 48.9 µM (inactive) in test [16].

Turning to `O=c1[nH]nc(-c2ccccc2)n1/N=C/c1cccs1`, the GI50 in test [18] was 95.5 µM (inactive); in [1] it was 83.6 µM (inactive); in test [2], 99.5 µM (inactive); in test [3], > 100 µM (inactive); in [4], 43.1 µM (inactive); in test [5] it was 38.1 µM (inactive). The GI50 in test [6] is 31.6 µM (inactive); in test [7], 46.7 µM (inactive); in test [8], 86.9 µM (inactive); in test [9], 36.7 µM (inactive); in test [11], > 100 µM (inactive); in [12], 66.1 µM (inactive). Moreover, the GI50 in test [13] was 74.8 µM (inactive); in test [14] it was 46.8 µM (inactive); in [15] it was > 100 µM (inactive); in [16], 43.2 µM (inactive).

Turning to `C=C(C)c1cc(C(C)(C)C)cc(C(=C)C)c1S(C)(=O)=O`, the GI50 in test [17], in test [18], in test [1], in [2], in test [3] and in [4] was > 100 µM (inactive) throughout. Besides, the GI50 in test [5], in test [6], in [7], in test [8], in [9] and in test [10] was > 100 µM (inactive) in each case. Also, the GI50 was > 100 µM (inactive) in test [11]; > 100 µM (inactive) in test [12]; > 100 µM (inactive) in test [13]; > 100 µM (inactive) in [14]; 3.91 µM (inactive) in test [15]; > 100 µM (inactive) in [16].
